One molecule from patent US10722505B2, “Substituted 2,4 diamino-quinoline as new anticancer agents” (GENOSCIENCE PHARMA, priority 2014, dated 2020) can be followed below.

Where a name gives a salt, the structure may show the parent alone.

One assay relates to KG-1 cell line. The assay is described as follows: CellTiter-Glo growth inhibition assay, KG-1. The format is cell-based. Particulars: Homo sapiens; KG-1, acute myelogenous leukemia, 72 h. As for the experimental part: (§1) All cell lines were maintained in medium containing 1% penicillin-streptomycin (Dutscher, P06-07100) and 10% Fetal Bovine Serum (Gibco, W3387L) except 20% for KG-1 cell line and PBMC, and cultured at 37° C. with 5% CO2.
KG-1 and MV4-11 cell line were maintained in Iscove's modified Dulbecco's medium (Dutscher, L0190).
(§2) Cell viability was measured using the CellTiter-Glo® luminescent cell viability assay as described by the manufacturer (Promega, Ref G7571) using an Infinite F200Pro luminometer (Tecan). Briefly, for adherent cells, cells were plated onto 96-well plates (white with clear bottom) in 90 μL of media per well and were allowed to grow overnight before the assay. For cells growing in suspension, cells were plated onto 96-well plates immediately before the assay.
(§3) Compounds were added at different concentrations to each well, and cell cultures were incubated for 72 h. Vehicle (H2O) was used as a control, and all compounds were tested in a constant percentage of H2O. After addition of 100 μL of CellTiter-Glo®, luminescence was measured using an Infinite F200Pro (Tecan). EC50 values were determined as the dose of compound required to reduce luminescent values to 50% of the signal obtained for untreated cell cultures. The experimental data were analyzed using a computer program, Graphpad Prism v5 (GraphPad Software, Inc. La Jolla, Calif.). […]
(Cellular ATP, detected with luciferase, serves as a proxy for viable cell number.)

The subject of a further assay is HCT-116 cell line. The assay is described as follows: CellTiter-Glo growth inhibition assay, HCT-116. In kind it is cell-based. Particulars: Homo sapiens; HCT-116, colorectal carcinoma, 72 h. As for the experimental part:
as §1
(§4) HepG2, Huh7, HCT-116, MDA-MB-231 and A375 cell lines were cultured in Dulbecco's modified Eagle's medium (Dutscher, L0103).
as §2, §3

Another assay has as its system HepG2 cell line. The assay is described as follows: CellTiter-Glo growth inhibition assay, HepG2. In kind it is cell-based. As to conditions: Homo sapiens; HepG2, hepatocellular carcinoma, 72 h. As for the experimental part: as §1, §4, §2, §3
The test system of a further assay is 786-O cell line. The assay is described as follows: CellTiter-Glo growth inhibition assay, 786-O. In kind it is cell-based. As to conditions: Homo sapiens, 786-0, 72 h. As for the experimental part: CAKI-1 and 786-0 cell lines were maintained in RPMI 1640 medium (Dutscher, L0498) containing 1% penicillin-streptomycin (Dutscher, P06-07100) and 10% Fetal Bovine Serum (Gibco, W3387L) and cultured at 37° C. with 5% CO2.
Cell viability was measured using the CellTiter-Glo® luminescent cell viability assay as described by the manufacturer (Promega, Ref G7571) using an Infinite F200Pro luminometer (Tecan). Briefly, cells were plated onto 96-well plates (white with clear bottom) in 90 μL of media per well and were allowed to grow overnight before the assay.
Compounds 2-3 and two reference compounds (Sorafenib and Sunitinib) were added at different concentrations to each well, and cell cultures were incubated for 72 h. For compound 2-3 analysis, H2O was used as a negative control (=untreated) and all concentrations were tested in a constant percentage of H2O. For Sorafenib and Sunitinib analysis, DMSO was used as a negative control (=untreated) and all concentrations were tested in a constant percentage of DMSO. 72 h after incubation of compounds, 100 μL of CellTiter-Glo® were added to each well and luminescence was measured using an Infinite F200Pro (Tecan). EC50 values were determined as the dose of compound required to reduce luminescent values to 50% of the signal obtained for untreated cell cultures. The experimental data were analyzed using a computer program, Graphpad Prism v5 (GraphPad Software, Inc. La Jolla, Calif.). All experiments were at least done in triplicate and repeated at least three independent times.

Assay [1] has as its system CPP45 liver metastatic CRC patient-derived cells. Nature of the assay: CellTiter-Glo growth inhibition, liver metastatic CRC patient-derived cells CPP45. In kind it is cell-based. As to conditions: Homo sapiens; CPP45, 72 h. The text has this:
Patient derived liver metastasis cells (CPP19, 30, 36 and CPP45—see table 1 for clinical descriptions) were maintained in complete DMEM (Gibco) with 10% FBS. Cells were obtained from biopsies provided by CHU-Caremeau (Nimes, France) within an approved protocol. Signed informed consents were obtained from patients prior to samples acquisition in accordance with all ethical and legal aspects. Tumors were washed, minced into fragments (<2 mm^3) and digested with liberase H (0.26 U/mL, Roche) resuspended in Accumax (Sigma-Aldrich). After 2 hours at 37° C., cell suspension was filtered through a […] to obtain a single cell suspension and plated in DMEM medium, supplemented with FBS, glutamine, antibiotics and non-essential aminoacids. When a monolayer of patient-derived tumor cells was formed, cells were detached using trypsin/EDTA and resuspended in DMEM with 10% FBS (for adherent cells) or defined M11 media (for sphere formation). Cells were cultured in a humidified atmosphere at 37° C. and 5% CO2.
Cells were plated at 10^4 cells per well in P96 well plates in DMEM with 10% FBS. After 24 hours, cells were treated with compound 2-3 and cell viability was assessed 72 h post-treatment by CellTiter-Glo® Luminescent Cell Viability Assay (Promega). EC50 were calculated using GraphPad Prism Software v6 (Graphpad Software, Inc La Jolla, Calif.). […]

The subject of assay [2] is LI0752 HCC patient derived cells. The assay is described as follows: CellTiter-Glo growth inhibition, HCC patient-derived cells LI0752. The format is cell-based, human. Particulars: Homo sapiens; LI0752, 72 hours. As for the experimental part: (§5) The patient derived Hepatocellular Carcinoma (HCC) cells were maintained in medium respectively described in table 15 containing 1% penicillin-streptomycin (Life Technologies, 15070-063), with a supplements for primary cell culture (PCS) containing hydrocortisone (50 nM), Epidermal Growth Factor (20 ng/ml), β-fibroblast Growth Factor (10 ng/ml), Heparin (2 μg/ml) ITS liquid media supplement (1×) and non-essential amino acid (NEAA, 0.01 mM, 1×). The primary cell were cultured in a humidified atmosphere (95% relative humidity) with 5% CO2 at 37° C.
(§6) The cell growth inhibition assay was performed as described previously in example 5 using the CellTiter-Glo® luminescent cell viability assay as described by the manufacturer (Promega, Ref G7571). The number of cells seeded per well (in 96-Well Flat Clear Bottom Black Polystyrene TC-Treated Microplates, Cat #3340, Corning®) is described in the table 16. A backseal black sticker (Cat #6005189, Perkin Elmer) was placed to the bottom of each plate before recording CellTiter-Glo® luminescence.
(§7) The experimental data are analyzed using a computer program, Graphpad Prism V 5.0 (GraphPad Software, Inc. La Jolla, Calif.) and EC50 values were determined as the dose of compound required to reduce absorbance values to 50% of the signal obtained for vehicle treated cell cultures and were a mean of at least three independent experiments.

Assay [3] has as its system LI1646 HCC patient derived cells. Nature of the assay: CellTiter-Glo growth inhibition, HCC patient-derived cells LI1646. In kind it is cell-based, human. As to conditions: Homo sapiens; LI1646, 72 hours. As for the experimental part:
as §5, §6, §7

`CC(C)(C)NC1CCN(c2cc(NCc3ccc(Cl)cc3)nc3ccccc23)CC1` [Compound 2-3, 2-(4-chlorobenzylamino)-4-(4-tert-butylaminopiperidin-1-yl)-quinoline hydrochloride salt]: the EC50 in the assay with KG-1 cell line came out at 5100 nM; in the assay on HCT-116 cell line, 1600 nM; in the assay on HepG2 cell line, 900 nM; with 786-O cell line, 2100 nM; in assay [1], 1120 nM; in assay [2], 500 nM. This molecule had an EC50 in assay [3] of 1400 nM.

One may read the EC50 as the midpoint of the concentration-response curve. A high value points to weaker potency.
